Patent US6353002B2, “Therapeutic agents” (Knoll Aktiengesellschaft, priority 1997, dated 2002)
Where a name gives a salt, the structure may show the parent alone.

Molecular target: T1, 5-HT1A receptors (Rattus norvegicus, UniProt P19327)
T1 construct: Hippocampal tissue from the brains of male Charles River CD rats; from tissue; host or cells: rat hippocampus membrane homogenate
T1 sequence (P19327 1-422): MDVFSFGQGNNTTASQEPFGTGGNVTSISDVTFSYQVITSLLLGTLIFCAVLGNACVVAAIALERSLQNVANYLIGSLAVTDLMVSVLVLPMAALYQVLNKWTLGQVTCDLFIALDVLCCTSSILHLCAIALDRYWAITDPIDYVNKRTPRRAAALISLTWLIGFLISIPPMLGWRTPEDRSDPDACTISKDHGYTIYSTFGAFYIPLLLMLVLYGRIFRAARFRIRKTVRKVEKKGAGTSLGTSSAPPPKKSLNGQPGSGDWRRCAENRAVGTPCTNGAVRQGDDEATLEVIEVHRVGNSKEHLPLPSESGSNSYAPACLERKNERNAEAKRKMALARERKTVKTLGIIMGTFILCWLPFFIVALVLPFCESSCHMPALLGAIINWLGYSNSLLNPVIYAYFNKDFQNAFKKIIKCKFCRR
Test: Inhibition of [3H]8-OH-DPAT binding to 5-HT1A receptors in rat hippocampal tissue
Conditions: ligand [3H]8-OH-DPAT 2 nM, 25° C., 30 minutes
Protocol: Hippocampal tissue from the brains of male Charles River CD rats weighing between 150-250 g were homogenised in ice-cold 50 mM Tris-HCl buffer (pH 7.7) when measured at 25° C., 1:40 w/v) and centrifuged at 30,000 g at 4° C. for 10 minutes. The pellet was rehomogenised in the same buffer, incubated at 37° C. for 10 minutes and centrifuged at 30,000 g at 4° C. for 10 minutes. The final pellet was resuspended in 50 mM Tris-HCl buffer (pH 7.7) containing 4 mM CaCl2, 0.1% L-ascorbic acid and 10 μM pargyline hydrochloride (equivalent to 6.25 mg wet weight of tissue/ml) and used immediately in the binding assay. Aliquots (400 μl; equivalent to 2.5 mg wet weight of tissue/tube) of this suspension were added to tubes containing the ligand (50 μl; 2 nM) and distilled water (50 μl; total binding) or 5-HT (50 μl; 10 μM; non-specific binding) or test compound (50 μl; at a single concentration of 10^−8 M or at 10 concentrations ranging from 10^−11−10^−3 M). The ligand was [^3H]8-hydroxy-2-(dipropylamino)tetralin ([^3H]8-OH-DPAT) and the mixture was incubated at 25° C. for 30 minutes before the incubation was terminated by rapid filtration.
The filters were washed with ice-cold Tris-HCl buffer and dried. The filters were punched out into vials, scintillation fluid added and radioactivity determined by liquid scintillation counting. The percentage displacement of specific binding of the tritiated ligand was calculated for the single concentration (10^−6 M) of test compound. Displacement curves were then produced for those compounds which displaced ≧50% of specific binding of the tritiated ligand at 10^−6 M using a range of concentrations of the compound. The concentration which gave 50% inhibition of specific binding (IC50) was obtained from the curve. The inhibition coefficient Ki was then calculated using the formula [formula]
in which [ligand] is the concentration of the tritiated ligand used and KD is the equilibrium dissociation constant for the ligand.

| SMILES | Ki |
| --- | --- |
| COc1ccccc1N1CCC(CNC[C@H]2COc3ccc4scc(Cl)c4c3O2)CC1 [Example 1, (S)-N-(9-chloro-2,3-dihydrothieno[3,2-f]-1,4-benzodioxin-2-ylmethyl)-1-[1-(2-methoxyphenyl)piperid-4-yl]methylamine 0.5 fumarate] | 36 nM |
| COc1ccccc1N1CCC(CNC[C@H]2COc3ccc4sccc4c3O2)CC1.O=C(O)/C=C/C(=O)O [Example 2, (S)-N-(2,3-dihydrothieno[3,2-f]-1,4-benzodioxin-2-ylmethyl)-1-[1-(2-methoxyphenyl)piperid-4-yl]methylamine monofumarate] | 9.7 nM |
| COc1ccccc1N1CCC(CNC[C@H]2COc3ccc4[nH]ncc4c3O2)CC1 [Example 5, (S)-N-(2,3-dihydro-7H-1,4-dioxino[2,3-e]indazol-2-ylmethyl)-1-[1-(2-methoxyphenyl)piperid-4-yl]methylamine] | 1.2 nM |
| COc1ccccc1N1CCC(CNC[C@H]2COc3ccc4occc4c3O2)CC1 [Example 6, (S)-N-(2,3-dihydrofuro[3,2-f]-1,4-benzodioxin-2-ylmethyl)-1-[1-(2-methoxyphenyl)piperid-4-yl]methylamine monofumarate monohydrate] | 1.7 nM |
| Oc1ccccc1N1CCC(CNC[C@H]2COc3ccc4occc4c3O2)CC1 [Example 7, (S)-2-{4-[(2,3-Dihydrofuro[3,2-f]-1,4-benzodioxin-2-ylmethyl)-aminomethyl]piperidino}phenol monofumarate 1.1 hydrate, 0.25 ethanol solvate] | 3.6 nM |
| COc1ccccc1N1CCC(CNC[C@H]2COc3ccc4c(c3O2)OCO4)CC1 [Example 8, (S)-N-(7,8-methylenedioxy-2,3-dihydro-1,4-benzodioxin-2-ylmethyl)-1-[1-(2-methoxyphenyl)piperid-4-yl]methyl-amine monocitrate] | 1.1 nM |

Same assay, conditions: single concentration 10^−6 M of test compound, ligand [3H]8-OH-DPAT

| SMILES | % displacement at 10^−6 M, 5-HT1A |
| --- | --- |
| CCOC(=O)c1cc2c3c(ccc2[nH]1)OC[C@H](CNCC1CCN(c2ccccc2OC)CC1)O3 [Example 3, ethyl (S)-2,3-dihydro-2-(N-{[1-(2-methoxyphenyl)piperid-4-yl]methyl}aminomethyl)-7H-1,4-dioxino[2,3-e]indole-8-carboxylate 0.05 dichloromethane solvate] | 99% |
| COc1ccccc1N1CCC(CNC[C@H]2COc3ccc4[nH]ccc4c3O2)CC1 [Example 4, (S)-N-(2,3-dihydro-7H-1,4-dioxino[2,3-e]indol-2-ylmethyl)-1-[1-(2-methoxyphenyl)piperid-4-yl]methylamine 0.1 hydrate] | 99% |

Molecular target: D2-like dopamine receptors (Rattus norvegicus, UniProt P61169)
Test: Inhibition of tritiated (S)-sulpiride binding to D2-like dopamine receptors in rat striatal tissue
Conditions: ligand tritiated (S)-sulpiride 1 nM, 4° C., 40 minutes
Protocol: Striatal tissue from the brains of male Charles River CD rats weighing between 140-250 g were homogenised in ice-cold 50 mM Tris-HCl buffer (pH 7.7 when measured at 25° C.) and centrifuged at 40,000 g for 10 minutes. The pellet was resuspended in Tris salts buffer (50 mM Tris-HCl buffer containing 120 mM NaCl, 5 mM KCl, 2 mM CaCl2 and 1 mM MgCl2 with the addition of 6 mM ascorbic acid; pH 7.7 when measured at 25° C.), and again centrifuged at 40,000 g for 10 minutes. The final pellet was stored at −80° C. Before each test the pellet was resuspended in Tris salts buffer (equivalent to 2 mg wet weight of tissue/ml). […]
The filters were washed with ice-cold Tris-HCl buffer and dried. The filters were punched out in to vials, scintillation fluid added and were left for about 20 hours before being counted by scintillation spectrophotometry. The percentage displacement of specific binding of the tritiated ligand was calculated for the single concentration (10^−6M) of test compound. […] The inhibition coefficient Ki then calculated using the formula [formula] […]

D2-like dopamine receptors, sequence (P61169 whole entry): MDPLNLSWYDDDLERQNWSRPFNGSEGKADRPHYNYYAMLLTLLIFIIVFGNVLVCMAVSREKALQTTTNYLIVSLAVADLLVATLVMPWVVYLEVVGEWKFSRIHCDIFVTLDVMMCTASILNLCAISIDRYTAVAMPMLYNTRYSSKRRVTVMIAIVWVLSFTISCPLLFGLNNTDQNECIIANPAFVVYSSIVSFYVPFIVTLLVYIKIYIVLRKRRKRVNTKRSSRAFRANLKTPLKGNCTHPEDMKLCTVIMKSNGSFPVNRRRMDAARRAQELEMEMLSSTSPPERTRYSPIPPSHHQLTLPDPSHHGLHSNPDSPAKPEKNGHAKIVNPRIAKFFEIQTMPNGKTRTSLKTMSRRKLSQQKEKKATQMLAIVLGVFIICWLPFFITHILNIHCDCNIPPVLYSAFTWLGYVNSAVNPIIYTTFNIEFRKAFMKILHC

| SMILES | Ki |
| --- | --- |
| CCOC(=O)c1cc2c3c(ccc2[nH]1)OC[C@H](CNCC1CCN(c2ccccc2OC)CC1)O3 [Example 3, ethyl (S)-2,3-dihydro-2-(N-{[1-(2-methoxyphenyl)piperid-4-yl]methyl}aminomethyl)-7H-1,4-dioxino[2,3-e]indole-8-carboxylate 0.05 dichloromethane solvate] | 106 nM |

Tested on: not given
Test: not given
Conditions: not given

| SMILES | melting point |
| --- | --- |
| Oc1ccccc1N1CCC(CNC[C@H]2COc3ccc4occc4c3O2)CC1 (as salt: fumarate) (hydrate or solvate) [Example 7, (S)-2-{4-[(2,3-Dihydrofuro[3,2-f]-1,4-benzodioxin-2-ylmethyl)-aminomethyl]piperidino}phenol monofumarate 1.1 hydrate, 0.25 ethanol solvate] | 88 to 89 °C |
| COc1ccccc1N1CCC(CNC[C@H]2COc3ccc4scc(Cl)c4c3O2)CC1 (as salt: fumarate) [Example 1, (S)-N-(9-chloro-2,3-dihydrothieno[3,2-f]-1,4-benzodioxin-2-ylmethyl)-1-[1-(2-methoxyphenyl)piperid-4-yl]methylamine 0.5 fumarate] | 171 to 172 °C |
| COc1ccccc1N1CCC(CNC[C@H]2COc3ccc4[nH]ccc4c3O2)CC1 (hydrate or solvate) [Example 4, (S)-N-(2,3-dihydro-7H-1,4-dioxino[2,3-e]indol-2-ylmethyl)-1-[1-(2-methoxyphenyl)piperid-4-yl]methylamine 0.1 hydrate] | 162 to 163 °C |
| COc1ccccc1N1CCC(CNC[C@H]2COc3ccc4occc4c3O2)CC1.O.O=C(O)/C=C/C(=O)O (hydrate or solvate) [Example 6, (S)-N-(2,3-dihydrofuro[3,2-f]-1,4-benzodioxin-2-ylmethyl)-1-[1-(2-methoxyphenyl)piperid-4-yl]methylamine monofumarate monohydrate] | 95 to 96 °C |
| COc1ccccc1N1CCC(CNC[C@H]2COc3ccc4sccc4c3O2)CC1.O=C(O)/C=C/C(=O)O [Example 2, (S)-N-(2,3-dihydrothieno[3,2-f]-1,4-benzodioxin-2-ylmethyl)-1-[1-(2-methoxyphenyl)piperid-4-yl]methylamine monofumarate] | 180 to 182 °C |
